These results are taken from patent US20230339991A1, “HYPOXIA-ACTIVATED DNA ALKYLATING AGENT AND MEDICAL USE THEREOF” (ASCENTAWITS PHARMACEUTICALS, LTD., priority 2020, published 2023).

Data set [1] deals with HuPrime pancreatic cancer PA3546 subcutaneous xenograft PDX tumor. Briefly: PA3546 human pancreatic cancer subcutaneous PDX model. Particulars: 120 mg/kg i.p. QW×3; Day 25.
Procedure: BALB/c nude mice were subcutaneously inoculated with HuPrime® model PA3546 tumor blocks to establish human pancreatic cancer subcutaneous transplantation tumor model. […] Efficacy was evaluated according to the relative tumor inhibition rate TGI (%), and safety was evaluated according to the change in body weight and the death of animals.
For data set [2], the target named is P-gp (Homo sapiens, UniProt P08183). Briefly: P-gp substrate evaluation, MDCKII-MDR1 penetration test. Particulars: dog; for Papp A→B at 2 h / Papp B→A at 2 h: MDCK-MDR1. As for the experimental part:
(1) MDCKII-MDR1 cells were cultured in the cell culture bottle. The conditions of the incubator were 37° C., 5% of CO2, and 95% of the relative humidity. When the cell growth confluence was up to 70-90%, the cells were inoculated to the transwell.
The cell suspension was transferred to the upper compartment of the 96-well transwell, wherein each upper compartment contains 50 μL of the cell suspension. The final inoculum density was 5.45×10^5 cells/cm^2.
(1) The transwell culture plate of the MDCKII-MDRT cells was taken out from the incubator. The cell monolayer membrane was rinsed two times with the buffer solution and incubated at 37° C. for 30 min.
(2) The transport rate that the compound was transported from the top-end to the base-end was tested. 75 μL of the buffer solution contained the sample was added to each upper compartment (top-end), and 235 μL of the buffer solution was added to each lower compartment (base-end).
(3) The transport rate that the compound was transported from the base-end to the top-end was tested. 75 μL of the buffer solution was added to each upper compartment (top-end), and 235 μL of the buffer solution contained the sample was added to each lower compartment (base-end).
(6) The upper and lower transits were merged up and then incubated at 37° C. for 2 h.
(7) After the incubation was finished, 50 μL of the samples from each well of the upper compartment and the lower compartment of the transwell culture plate were respectively added to new sample tubes. 200 μL of the acetonitrile containing the internal standard (100 nM Alprazolam, 200 nM Labetalol, 200 nM caffeine and 2 μM Ketoprofen) was added to each sample tube. After the sample tubes were vortexed for 10 min, they were centrifuged at 3220 g for 30 min. 100 μL of the supernatant was taken and diluted with the same volume of the water to perform the LC-MS/MS analysis. Each sample was adopted to the three parallel incubation.
The peak area was calculated by the result of the ion chromatography. The permeability coefficient (Papp, unit: cm/s×10^−6) of the compound was calculated by the formula: […]
In the formula, “VA” refers to the volume of the solution on the acceptor (Ap→Bl was 0.235 mL, and Bl→Ap was 0.075 mL), “Area” refers to the area of the permeable membrane of the 96-well transwell (0.143 cm^2), “time” refers to the incubation time (in second), “[drug]acceptor” refers to the drug concentration of the acceptor after the incubation, and “[drug]initial, donor” refers to the initial concentration of the drug administration before the incubation.
The efflux ratio was calculated by the following formula: […]
In the formula, “Papp (B-A)” refers to the permeability coefficient from the base-end to the top-end, and the term “Papp (A-B)” refers to the permeability coefficient from the top-end to the base-end.
The recovery was calculated by the following formula: […]
In the formula, “VA” refers to the volume of the solution on the acceptor (mL), “VD” refers to the volume of the solution on the donor (mL), “[drug]acceptor” refers to the drug concentration of the acceptor after the incubation, “[drug]donor” refers to the drug concentration of the donor after the incubation, and the term “[drug]initial, donor” refers to the initial concentration of the drug administration before the incubation.

For data set [3], the system named is human lung cancer NCI-H460 subcutaneous xenograft. Briefly: Human lung cancer NCI-H460 subcutaneous xenograft model, compounds B and C. The data set is classed as in vivo, BALB/c nude mice. As for the experimental part: BALB/c nude mice were subcutaneously inoculated with human lung cancer NCI-H460 cells to establish human lung cancer subcutaneous transplantation tumor model. […] The positive drug Irinotecan 40 mg/kg group was administered by intraperitoneal injection once every 4 days for 7 times, and observed for 4 days.

Data set [4] can be described thus: Plasma stability, rat. To be noted: Rat plasma; after 30 minutes. The method, then: (§1) The frozen plasma was immediately melted in a water bath of 37° C. The plasma was centrifuged at 3, 220 g for 10 minutes to remove the blood clots and the supernatant was collected into a new test tube. The pH of the plasma was checked and recorded. Note: a. Only plasma that has been melted no more than twice since arrival was used; b. Only plasma in the range of pH 7 to pH 8 was used.
(§2) 1 mM of working solutions of the test compound and the control compound mevinolin were prepared in DMSO. 1 mM of the working solution of the control compound solution in […] was prepared in acetonitrile. 4 μL of the working solution was added to 796 μL of pre-incubated plasma to achieve 5 μM of final concentration. The final concentration of solvent was 0.5%.
[…] The assay is performed in duplicate. At the end of the two hour incubation, 300 μL of quenched solution at room temperature (acetonitrile containing internal standards (acetonitrile, 100 nM Alprazolam, 500 nM Labetalol and 2 μM ketoprofen)) was added to terminate the reaction. Samples at time 0 were prepared by adding 50 μL of standard addition plasma to the new test tubes with 300 μL of quenched solution at room temperature. The test tubes were mixed by vortex for 5 minutes. The samples in the plates were centrifuged at 3, 220×g for 30 minutes at 4° C. to precipitate the proteins. 100 μL of supernatant was transferred to a new plate. The supernatant was diluted with 100 μL of water, mixed well and analysed using LC-MS/MS.

A short description of data set [5]: Plasma stability, dog. Particulars: Dog plasma; after 30 minutes. As for the experimental part:
as §1, §2
The aliquots of 50 μL of the standard addition plasma were added to new test tubes and incubated in the water bath of 37° C. at approximately 60 rpm for 2 hours. The assay is performed in duplicate. At the end of the two hour incubation, 300 μL of quenched solution at room temperature (acetonitrile containing internal standards (acetonitrile, 100 nM Alprazolam, 500 nM Labetalol and 2 μM ketoprofen)) was added to terminate the reaction. Samples at time 0 were prepared by adding 50 μL of standard addition plasma to the new test tubes with 300 μL of quenched solution at room temperature. The test tubes were mixed by vortex for 5 minutes. The samples in the plates were centrifuged at 3, 220×g for 30 minutes at 4° C. to precipitate the proteins. 100 μL of supernatant was transferred to a new plate. The supernatant was diluted with 100 μL of water, mixed well and analysed using LC-MS/MS.

Data set [6] deals with human lung cancer NCI-H460-Luc2 intracranial transplantation tumor. To be noted: 20 mg/kg i.p. QW×3; 11 days after grouping. The method, then:
BALB/c nude mice were inoculated intracranially with human lung cancer NCI-H460-Luc2 cells to establish human lung cancer intracranial transplantation tumor model. […] The relative tumor inhibition rate TGI (%) was calculated based on tumor biofluorescence value and the efficacy was evaluated.

Data set [7] can be described thus: Plasma stability, monkey. The data set is classed as in vitro ADME. To be noted: Monkey plasma; after 30 minutes. The method, then:
(§3) The pH of the plasma was checked and recorded. Note: a.
(§4) The final concentration of solvent was 0.5%.
(§5) The assay is performed in duplicate.

The nature of data set [8]: Plasma stability, human. To be noted: Human plasma; after 30 minutes; 5 μM; 37° C. The data set is classed as in vitro ADME. The method, then:
as §3, §4, §5

The nature of data set [9]: Plasma stability, mouse. The data set is classed as in vitro ADME. Particulars: Mouse plasma; after 30 minutes. As for the experimental part:
as §3, §4, §5

Data set [10] relates to human liver cancer HepG2 subcutaneous xenograft. Briefly: Human liver cancer HepG2 subcutaneous xenograft model. The data set is classed as in vivo, BALB/c nude mice. An excerpt: BALB/c nude mice were subcutaneously inoculated with human liver cancer HepG2 cells to establish human liver cancer subcutaneous transplantation tumor model.
Data set [11] has as its system mice. To be noted: prior literature WO2016210175A1, CN108024974A; cited from earlier work.
Where [12] appears, read: MDCK-MDR1, Recovery (%) AP-BL, verapamil 0 μM.
Setting [13] is: MDCK-MDR1, Recovery (%) BL-AP, verapamil 0 μM.
The mark [14] stands for this setting: MDCK-MDR1, with verapamil 100 μM (in donor and acceptor buffer), Recovery (%) AP-BL, verapamil 100 μM.
[15] abbreviates: MDCK-MDR1, with verapamil 100 μM (in donor and acceptor buffer), Recovery (%) BL-AP, verapamil 100 μM.

Where “and” joins values, the source holds several entries; their conditions need not be identical. Equal entries are not always repeated.

Chain of P-gp (P08183 whole entry): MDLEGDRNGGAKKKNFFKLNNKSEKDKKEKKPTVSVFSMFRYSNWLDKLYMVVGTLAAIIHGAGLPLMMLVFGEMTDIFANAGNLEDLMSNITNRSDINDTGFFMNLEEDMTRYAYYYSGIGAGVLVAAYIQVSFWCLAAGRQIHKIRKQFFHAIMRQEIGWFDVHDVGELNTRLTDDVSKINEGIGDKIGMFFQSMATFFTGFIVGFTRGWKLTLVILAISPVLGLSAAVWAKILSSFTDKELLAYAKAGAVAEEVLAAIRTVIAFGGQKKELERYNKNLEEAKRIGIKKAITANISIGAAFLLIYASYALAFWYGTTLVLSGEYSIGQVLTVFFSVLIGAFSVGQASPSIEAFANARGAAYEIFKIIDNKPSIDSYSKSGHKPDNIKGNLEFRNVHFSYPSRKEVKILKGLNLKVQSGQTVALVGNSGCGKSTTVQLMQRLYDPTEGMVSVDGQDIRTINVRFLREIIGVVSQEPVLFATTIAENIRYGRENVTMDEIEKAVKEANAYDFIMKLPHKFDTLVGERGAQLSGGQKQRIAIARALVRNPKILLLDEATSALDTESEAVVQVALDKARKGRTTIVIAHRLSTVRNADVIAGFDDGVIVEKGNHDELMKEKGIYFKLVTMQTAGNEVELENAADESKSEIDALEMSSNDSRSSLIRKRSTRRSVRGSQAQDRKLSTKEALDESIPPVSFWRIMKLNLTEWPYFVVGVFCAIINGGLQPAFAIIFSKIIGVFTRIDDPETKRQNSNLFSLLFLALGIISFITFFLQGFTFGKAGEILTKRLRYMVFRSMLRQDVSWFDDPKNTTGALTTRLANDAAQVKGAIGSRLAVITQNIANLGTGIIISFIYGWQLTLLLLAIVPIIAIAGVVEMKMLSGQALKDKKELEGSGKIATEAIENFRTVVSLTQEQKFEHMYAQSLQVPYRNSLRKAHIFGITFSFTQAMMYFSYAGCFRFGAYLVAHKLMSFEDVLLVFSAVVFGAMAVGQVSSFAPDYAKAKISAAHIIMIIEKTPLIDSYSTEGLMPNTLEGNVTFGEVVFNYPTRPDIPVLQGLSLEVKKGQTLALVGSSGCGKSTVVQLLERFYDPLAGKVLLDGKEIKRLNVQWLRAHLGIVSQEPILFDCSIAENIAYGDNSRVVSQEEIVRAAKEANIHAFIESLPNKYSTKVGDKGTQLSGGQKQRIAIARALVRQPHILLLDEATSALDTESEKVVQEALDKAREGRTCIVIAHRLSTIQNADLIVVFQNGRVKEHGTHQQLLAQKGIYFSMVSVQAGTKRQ

With `Nc1ccn([C@@H]2O[C@H](CO)[C@@H](O)C2(F)F)c(=O)n1` [Gemcitabine, reference compound], the “relative tumor inhibition rate TGI (%)” value in data set [1] is 45.31%.
In the case of `Cc1ccc(NC(=O)c2ccc(CN3CCN(C)CC3)cc2)cc1Nc1nccc(-c2cccnc2)n1` [Imatinib], in data set [2], the Papp A→B at 2 h came out at 1.89 ×10⁻⁶ cm/s. This compound yielded a Papp B→A at 2 h in data set [2] of 30.5 ×10⁻⁶ cm/s. For the same compound, the recovery at 2 h in data set [2] (setting [12]) is 79%; in data set [2] (setting [13]), 63.4%; in data set [2] (setting [14]), 83%; in data set [2] (setting [15]), 87.6%.
For `CCc1c2c(nc3ccc(OC(=O)N4CCC(N5CCCCC5)CC4)cc13)-c1cc3c(c(=O)n1C2)COC(=O)[C@]3(O)CC` [Irinotecan, reference compound], the “relative tumor inhibition rate TGI (%)” value in [3] (40 mg/kg, Q4D×7, i.p., day 28) was 79.03%. Further, the “drug toxicity (weight loss / death)” value in data set [3] (at the tested dosage) is listed as “a certain drug toxicity”.
With `CC[C@H](C)C(=O)O[C@H]1C[C@@H](C)C=C2C=C[C@H](C)[C@H](CC[C@@H]3C[C@@H](O)CC(=O)O3)[C@H]21` [Lovastatin, reference compound], the Remaining percentage was 0.21% and 0.19% in data set [4]; 58.73% in data set [5].
Consider `COCCc1ccc(OCC(O)CNC(C)C)cc1` (centres unmarked) [Metoprolol], for which, in data set [2], the Papp A→B at 2 h came out at 27.6 ×10⁻⁶ cm/s and the Papp B→A at 2 h was found to be 26.5 ×10⁻⁶ cm/s. Further, the recovery at 2 h in [2] (setting [12]) came to 96.2%. For the same compound, the recovery at 2 h in [2] (setting [13]) was determined as 98.5%.
For the compound `CC(=O)O[C@H]1C(=O)[C@@]2(C)[C@H]([C@H](OC(=O)c3ccccc3)[C@]3(O)C[C@H](OC(=O)[C@H](O)[C@@H](NC(=O)c4ccccc4)c4ccccc4)C(C)=C1C3(C)C)[C@]1(OC(C)=O)CO[C@@H]1C[C@@H]2O` [Paclitaxel, reference compound], the mean biofluorescence value in data set [6] is given as 4184.52 E+05 photon/second.
As to `CC(C)[N+](C)(CCOC(=O)C1c2ccccc2Oc2ccccc21)C(C)C` [Propanthine, reference compound], the Remaining percentage in [7] is 54.38%; in data set [8] it was 0.07% and 3.32%; in data set [9] it was 1.98%.
In turn, `CNC(=O)c1cc(Oc2ccc(NC(=O)Nc3ccc(Cl)c(C(F)(F)F)c3)cc2)ccn1` [Sorafenib, reference compound] yielded a cure rate in [10] (30 mg/kg (Group 2)) of 20%. Further, the “relative tumor inhibition rate TGI (%)” value in data set [10] (30 mg/kg, QD×21 Days, intragastric, Day 45) is given as 48.11%.
As for `C[C@@H](OP(=O)(N1CC1)N1CC1)c1ccc([N+](=O)[O-])cc1` [TH2565], the “MTD Result” value in data set [11] is on record as 2 mg/kg.
For the compound `C[C@H](OP(=O)(N1CC1)N1CC1)c1ccc([N+](=O)[O-])cc1` [TH2566], the “MTD Result” value in [11] is on record as 2 mg/kg.
Consider `COc1cc2nc(N3CCN(C(=O)c4ccco4)CC3)nc(N)c2cc1OC` [prazosin], for which the Papp A→B at 2 h in data set [2] was 11 ×10⁻⁶ cm/s. In addition, the Papp B→A at 2 h in data set [2] came out at 31.8 ×10⁻⁶ cm/s. Further, the recovery at 2 h in [2] (setting [12]) came to 90.7%; in [2] (setting [13]), 78.5%; in data set [2] (setting [14]), 94.2%; in [2] (setting [15]) it was 88.5%.
